In paper PMC8617031, “Development of a BCL-xL and BCL-2 dual degrader with improved anti-leukemic activity,” (Nature Communications, 2021):
“And” between values parts separate entries of the source, which are not always exact repeats. Equal entries are not always repeated.

What was measured:
BCL-xL = target: T1, BCL-xL (Homo sapiens, UniProt Q07817); assay: BCL-xL degradation by immunoblot in 293T cells; assay type: cell-based; settings: for Dmax: HEK-293T
T1 construct: endogenous in cells
Protocol: (§1) The DC50 and Dmax were calculated using Prism based on the ImageJ-quantified western blots in Supplementary Fig. 4. c, d AlphaLISA assay to determine the formation of BCL-xL/PROTAC/VHL-ELOC-ELOB (VCB) (c) or BCL-2/PROTAC/VCB (d) ternary complex in a cell-free condition. Data represent the mean of a single experiment with 2 technical replicates. Similar results were obtained in one more independent experiment. e, f NanoBRET assays evaluating intracellular BCL-xL/PROTAC/VCB (e) or BCL-2/PROTAC/VCB (f) ternary complex formation. […] Data are expressed as mean ± s.e.m. of three biological replicates. Source data are provided as a Source data file.
(§2) Representative immunoblots are shown in (a–d) and β-actin was used as a loading control in all immunoblot analyses. The normalized protein content in the immunoblots is presented as mean values ± s.e.m. (n = 3 biologically independent experiments) in the bar graph (bottom panel). e, f The formation of BCL-xL/PROTAC/VCB (e) and BCL-2/PROTAC/VCB (f) ternary complexes in a cell-free condition was determined by AlphaLISA assay. Data represent the mean of a single experiment with 2 technical replicates. […] Source data are provided as a Source data file.
(§3) Cells were collected, washed once with ice-cold phosphate-buffered saline, pH 7.2 (PBS, cat. no. 20012027; Thermo Fisher Scientific) and lysed in RIPA lysis buffer (Cat. No. BP-115DG, Boston Bio Products, Ashland, MA, USA) supplemented with protease and phosphatase inhibitor cocktails (Cat. No. PPC1010, Sigma-Aldrich, St. Louis, MO, USA) through sonication. The samples were centrifuged at 14,000 r.p.m. for 5 min and the supernatants were transferred into a new tube. The protein concentration in the supernatants was determined using the Pierce BCA protein Assay kit (cat. no. 23225, Thermo Fisher Scientific). The protein concentration was normalized, and the samples were reduced in 4× Laemmli’s SDS-sample buffer (cat. no. BP-110R, Boston Bio Products) and denatured at 95 °C for 5 min. An equal amount of protein samples (20–40 μg per lane) were resolved using precast 4–20% Tris-glycine gels (Mini-PROTEAN TGX, cat. no. 456–1094, Bio-Rad), and resolved proteins were transferred onto 0.2-µm pore size polyvinylidene difluoride (PVDF) blotting membranes (cat. no. LC2002, Thermo Fisher Scientific) using mini trans-blot electrophoretic transfer cell (Bio-Rad). The membranes were blocked with non-fat dry milk (5% wt/vol) in 1× Tris-buffered saline-Tween-20 (TBST, cat. no. J77500, Affymetrix) for 1 h at room temperature, and were subsequently probed with primary antibodies at a predetermined optimal concentration in non-fat dry milk (5% wt/vol in TBST) overnight at 4 °C. The membranes were washed three times (5 min each) in TBST and then incubated with horse radish peroxidase (HRP)-conjugated secondary antibodies for 1 h at room temperature. Following sufficient washing with TBST, the membranes were exposed with chemiluminescent HRP substrate (cat. no. WBKLS0500, MilliporeSigma), and the signal was detected using the ChemiDoc MP Imaging System (Bio-Rad) and quantified using the ImageJ (v1.53a) software from NIH.

[1] = target: T2, BCL-xL/PROTAC/VHL-ELOC-ELOB (VCB) ternary complex (Homo sapiens, UniProt P40337+Q07817); assay: AlphaLISA ternary complex formation, cell-free, BCL-xL; assay type: binding; settings: for in vitro ternary complex formation with BCL-xL (in words): AlphaLISA, cell-free, Fig. 2c, 3e; for AlphaLISA signal, BCL-xL/PROTAC/VCB: Fig. 2c raw Alpha reads
T2 construct: pGEX-6P-1-VHL(54-213) (pDL2200) was constructed through Gibson assembly method; made in house; host or cells: bacterial culture (LB broth, IPTG induction)
T2 sequence (Q07817 1-212 limits assumed): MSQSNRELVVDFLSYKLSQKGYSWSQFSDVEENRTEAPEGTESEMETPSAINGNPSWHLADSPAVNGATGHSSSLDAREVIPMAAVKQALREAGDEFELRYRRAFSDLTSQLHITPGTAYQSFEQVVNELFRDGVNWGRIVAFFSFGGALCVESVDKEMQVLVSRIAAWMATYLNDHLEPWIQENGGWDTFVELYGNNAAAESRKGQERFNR
T2 sequence (P40337 54-213 limits assumed): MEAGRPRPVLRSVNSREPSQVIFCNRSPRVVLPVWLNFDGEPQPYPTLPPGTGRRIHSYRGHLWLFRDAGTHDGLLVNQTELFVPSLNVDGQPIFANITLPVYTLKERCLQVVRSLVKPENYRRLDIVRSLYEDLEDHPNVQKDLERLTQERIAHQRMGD
T2 sequence (Q15369 17-112 partner limits assumed): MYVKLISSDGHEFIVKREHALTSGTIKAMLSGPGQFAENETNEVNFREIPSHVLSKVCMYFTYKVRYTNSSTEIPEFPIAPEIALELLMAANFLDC
T2 sequence (Q15370 whole entry partner): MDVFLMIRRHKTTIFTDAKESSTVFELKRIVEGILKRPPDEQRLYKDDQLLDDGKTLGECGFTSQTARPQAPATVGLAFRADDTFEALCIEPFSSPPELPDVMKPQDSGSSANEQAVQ
Protocol: (§4) AlphaLISA assay was used to evaluate the in vitro ternary complex formation between target proteins (BCL-xL or BCL-2), PROTAC and E3 ligase (VCB complex). In each well, 5 nM His-tagged BCL-xL or BCL-2 proteins and 5 nM GST-VCB complex was incubated with varying concentrations of compounds in fourfold serial dilutions, to a final volume of 40 µl in a 96-well PCR plate. After incubation at room temperature for 30 min, 5 µl alpha glutathione-donor beads (Cat. No. 6765300, PerkinElmer) were added to each well (20 µg/ml final concentration) and incubated for another 15 min. Thereafter, 5 µL 6× His-acceptor beads were added to each well (20 µg/ml final concentration) and incubated for an additional 45 min at room temperature. Thereafter, 17 µl of each sample was transferred in adjacent wells of a 384-well proxy plate, and the plate was scanned using the Alpha program on Biotek’s Synergy Neo2 multimode plate reader. The data were expressed as average AlphaLISA signal and plotted against different concentrations of compounds using GraphPad Prism 9 software.

BCL-2 = target: T3, BCL-2 (Homo sapiens, UniProt P10415); assay: BCL-2 degradation by immunoblot in 293T cells; assay type: cell-based; settings: for Dmax: HEK-293T
T3 construct: endogenous in cells
T3 sequence (P10415 whole entry): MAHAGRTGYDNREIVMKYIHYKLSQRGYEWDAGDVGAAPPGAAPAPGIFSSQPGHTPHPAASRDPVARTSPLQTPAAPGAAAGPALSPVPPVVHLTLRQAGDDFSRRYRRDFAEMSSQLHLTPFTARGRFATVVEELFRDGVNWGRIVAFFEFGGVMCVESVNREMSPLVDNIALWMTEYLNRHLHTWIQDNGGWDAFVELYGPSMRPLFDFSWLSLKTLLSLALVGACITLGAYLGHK
Protocol: as §1, §2, §3

[2] = target: T4, BCL-2/PROTAC/VCB ternary complex (Homo sapiens, UniProt P10415+P40337); assay: AlphaLISA ternary complex formation, cell-free, BCL-2; assay type: binding; settings: for in vitro ternary complex formation with BCL-2 (in words): AlphaLISA, cell-free, Fig. 2d, 3f; for AlphaLISA signal, BCL-2/PROTAC/VCB: Fig. 2d raw Alpha reads
T4 construct: pGEX-6P-1-VHL(54-213) (pDL2200) was constructed through Gibson assembly method; made in house; host or cells: bacterial culture (LB broth, IPTG induction)
T4 sequence (P10415 1-211 limits assumed): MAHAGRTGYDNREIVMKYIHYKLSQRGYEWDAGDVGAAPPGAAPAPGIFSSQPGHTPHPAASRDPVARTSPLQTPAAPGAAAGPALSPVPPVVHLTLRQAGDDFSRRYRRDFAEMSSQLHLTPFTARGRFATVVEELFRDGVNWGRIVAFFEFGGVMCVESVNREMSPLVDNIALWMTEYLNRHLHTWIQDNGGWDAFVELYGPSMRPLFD
T4 sequence (P40337 54-213 limits assumed): as the sequence (P40337 54-213 limits assumed) above
T4 sequence (Q15369 17-112 partner limits assumed): as the sequence (Q15369 17-112 partner limits assumed) above
T4 sequence (Q15370 whole entry partner): as the sequence (Q15370 whole entry partner) above
Protocol: as §4

[3] = compound 200000 nM, 2 technical replicates

T1 sequence (Q07817 whole entry): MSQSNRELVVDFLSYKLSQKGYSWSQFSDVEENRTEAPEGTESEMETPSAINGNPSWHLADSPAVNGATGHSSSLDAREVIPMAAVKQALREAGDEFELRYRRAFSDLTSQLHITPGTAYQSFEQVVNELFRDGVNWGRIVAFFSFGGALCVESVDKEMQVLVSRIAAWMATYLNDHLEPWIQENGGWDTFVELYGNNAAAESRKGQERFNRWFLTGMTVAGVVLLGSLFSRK

| Dmax (BCL-xL) | in vitro ternary complex formation with BCL-xL (in words) [1] | AlphaLISA signal, BCL-xL/PROTAC/VCB ([1]; compound 0.191 nM) | AlphaLISA signal, BCL-xL/PROTAC/VCB ([1]; compound 0.763 nM) | AlphaLISA signal, BCL-xL/PROTAC/VCB ([1]; compound 3.052 nM) | AlphaLISA signal, BCL-xL/PROTAC/VCB ([1]; compound 12.207 nM) | AlphaLISA signal, BCL-xL/PROTAC/VCB ([1]; compound 48.828 nM) | AlphaLISA signal, BCL-xL/PROTAC/VCB ([1]; compound 195.31 nM) | AlphaLISA signal, BCL-xL/PROTAC/VCB ([1]; compound 781.25 nM) | AlphaLISA signal, BCL-xL/PROTAC/VCB ([1]; compound 12500 nM) | AlphaLISA signal, BCL-xL/PROTAC/VCB ([1]; compound 50000 nM) | AlphaLISA signal, BCL-xL/PROTAC/VCB [1, 3] | Dmax (BCL-2) | in vitro ternary complex formation with BCL-2 (in words) [2] | AlphaLISA signal, BCL-2/PROTAC/VCB ([2]; compound 0.191 nM) | AlphaLISA signal, BCL-2/PROTAC/VCB ([2]; compound 0.763 nM) | AlphaLISA signal, BCL-2/PROTAC/VCB ([2]; compound 3.052 nM) | AlphaLISA signal, BCL-2/PROTAC/VCB ([2]; compound 12.207 nM) | AlphaLISA signal, BCL-2/PROTAC/VCB ([2]; compound 48.828 nM) | AlphaLISA signal, BCL-2/PROTAC/VCB ([2]; compound 195.31 nM) | Structure (SMILES) | also measured |
| --- | --- | --- | --- | --- | --- | --- | --- | --- | --- | --- | --- | --- | --- | --- | --- | --- | --- | --- | --- | --- | --- |
| 81% | much weaker ternary complexes | 14831 and 16852 | 20168 and 16739 | 14541 and 18037 | 19478 and 16699 | 33222 and 36251 | 136427 and 150589 | 133700 and 133335 | 16869 and 17291 | 11499 and 11443 | 9101 and 11295 | 69% | much weaker ternary complexes | 13116 and 18939 | 20209 and 15528 | 15560 and 16756 | 23256 and 23865 | 69142 and 68261 | 218425 and 202826 | Cc1ncsc1-c1ccc([C@H](C)NC(=O)[C@@H]2C[C@@H](O)CN2C(=O)[C@@H](NC(=O)CCCCCCCCC(=O)N2CCN(CC3(C)CCC(c4ccc(Cl)cc4)=C(CN4CCN(c5ccc(C(=O)NS(=O)(=O)c6ccc(N[C@H](CCN7CCOCC7)CSc7ccccc7)c(S(=O)(=O)C(F)(F)F)c6)cc5)CC4)C3)CC2)C(C)(C)C)cc1 (stereo partly drawn) [PPC10] | DC50 (BCL-xL; 293T cells, four concentrations, 16 h, Fig. 2b, read-out: BCL-xL DC50): 12.1 nM; BCL-2 degradation (in words) (BCL-2; 293T cells, 16 h): also degraded BCL-2; DC50 (BCL-2; 293T cells, four concentrations, 16 h, Fig. 2b, read-out: BCL-2 DC50): 355 nM; AlphaLISA signal, BCL-2/PROTAC/VCB ([2]; compound 781.25 nM): 114837 and 140035; AlphaLISA signal, BCL-2/PROTAC/VCB ([2]; compound 3125 nM): 20525 and 27108; AlphaLISA signal, BCL-2/PROTAC/VCB ([2]; compound 12500 nM): 13932 and 13026; AlphaLISA signal, BCL-2/PROTAC/VCB ([2]; compound 50000 nM): 10041 and 13037; AlphaLISA signal, BCL-2/PROTAC/VCB [2, 3]: 11345 and 10101 |
| 38% | much weaker ternary complexes | 14159 and 17511 | 19035 and 14403 | 18192 and 15524 | 16016 and 15699 | 18370 and 17440 | 28376 and 33281 | 25822 and 27451 | 15507 and 16950 | 13057 and 15839 | 17326 and 15566 | 38% | much weaker ternary complexes | 16751 and 14492 | 17062 and 15173 | 17477 and 13618 | 15016 and 16035 | 21071 and 20895 | 36395 and 36207 | Cc1ncsc1-c1ccc([C@H](C)NC(=O)[C@@H]2C[C@@H](O)CN2C(=O)[C@@H](NC(=O)CCCCCCCCCC(=O)N2CCN(CC3(C)CCC(c4ccc(Cl)cc4)=C(CN4CCN(c5ccc(C(=O)NS(=O)(=O)c6ccc(N[C@H](CCN7CCOCC7)CSc7ccccc7)c(S(=O)(=O)C(F)(F)F)c6)cc5)CC4)C3)CC2)C(C)(C)C)cc1 (stereo partly drawn) [PPC11] | AlphaLISA signal, BCL-xL/PROTAC/VCB ([1]; compound 3125 nM): 15301 and 22197; AlphaLISA signal, BCL-2/PROTAC/VCB ([2]; compound 781.25 nM): 16303 and 18907; AlphaLISA signal, BCL-2/PROTAC/VCB ([2]; compound 3125 nM): 17856 and 16482; AlphaLISA signal, BCL-2/PROTAC/VCB ([2]; compound 12500 nM): 13061 and 15598; AlphaLISA signal, BCL-2/PROTAC/VCB ([2]; compound 50000 nM): 10324 and 9718; AlphaLISA signal, BCL-2/PROTAC/VCB [2, 3]: 13464 and 10765 |
